Assay results from patent US20230278972A1, “SUBSTITUTED HALOALKYL SULFONANILIDE HERBICIDES” (FMC Corporation, priority 2020, published 2023).

Experiments:
Format in all cases: in vivo
[1] = system: barnyardgrass (Echinochloa crus-galli); assay: Test A preemergence, barnyardgrass; conditions: Preemergence; for Plant response rating, Barnyardgrass: 0 to 100 scale (0 no effect, 100 complete control); for Barnyardgrass plant response rating: 125 g ai/ha, visual injury on 0 to 100 scale (0 no effect, 100 complete control), approximately 10 days
Outline: (§1)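 After sowing into a sand-amended loam, pots for the preemergence test were treated by spraying directly onto soil. In parallel, seedlings at the one- to two-leaf stage and 2 to 10 cm tall were treated postemergence with the identical surfactant-containing formulation.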

kochia (Bassia scoparia) [2] = assay: Test A preemergence, kochia; conditions: Preemergence; for Plant response rating, Kochia: 0 to 100 scale (0 no effect, 100 complete control); for Kochia plant response rating: 125 g ai/ha, visual injury on 0 to 100 scale (0 no effect, 100 complete control), approximately 10 days
Outline: as §1

[3] = system: ragweed (common ragweed, Ambrosia artemisiifolia); assay: Test A preemergence, ragweed; conditions: Preemergence; for Plant response rating, Ragweed: 0 to 100 scale (0 no effect, 100 complete control); for Ragweed plant response rating: 125 g ai/ha, visual injury on 0 to 100 scale (0 no effect, 100 complete control), approximately 10 days
Outline: as §1

[4] = system: Ryegrass, Italian (Italian ryegrass, Lolium multiflorum); assay: Test A preemergence, Ryegrass, Italian; conditions: Preemergence; for Plant response rating, Ryegrass, Italian: 0 to 100 scale (0 no effect, 100 complete control); for Ryegrass, Italian plant response rating: 125 g ai/ha, visual injury on 0 to 100 scale (0 no effect, 100 complete control), approximately 10 days
Outline: as §1

[5] = system: Foxtail, Giant (giant foxtail, Setaria faberi); assay: Test A preemergence, Foxtail, Giant; conditions: Preemergence; for Plant response rating, Foxtail, Giant: 0 to 100 scale (0 no effect, 100 complete control); for Foxtail, Giant plant response rating: 125 g ai/ha, visual injury on 0 to 100 scale (0 no effect, 100 complete control), approximately 10 days
Outline: as §1

[6] = system: pigweed (Amaranthus retroflexus); assay: Test A preemergence, pigweed; conditions: for Plant response rating, Pigweed: 0 to 100 scale (0 no effect, 100 complete control); for Pigweed plant response rating: 125 g ai/ha, visual injury on 0 to 100 scale (0 no effect, 100 complete control), approximately 10 days
Outline: (§2)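 Directed soil spray at planting gave the preemergence treatment, while foliar application to one- to two-leaf seedlings (2–10 cm) gave the postemergence one; pots held a loam and sand mixture and chemicals were carried in a non-phytotoxic solvent with surfactant.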

[7] = system: barnyardgrass (Echinochloa crus-galli); assay: Test A postemergence, barnyardgrass; conditions: Postemergence; for Barnyardgrass plant response rating: 500 g ai/ha, visual injury vs untreated controls after approx. 10 days
Outline: as §2

kochia (Bassia scoparia) [8] = assay: Test A postemergence, kochia; conditions: Postemergence; for Kochia plant response rating: 500 g ai/ha, visual injury vs untreated controls after approx. 10 days
Outline: as §1

[9] = system: ragweed (common ragweed, Ambrosia artemisiifolia); assay: Test A postemergence, ragweed; conditions: Postemergence; for Ragweed plant response rating: 500 g ai/ha, visual injury vs untreated controls after approx. 10 days
Outline: as §1

[10] = system: Ryegrass, Italian (Italian ryegrass, Lolium multiflorum); assay: Test A postemergence, Ryegrass, Italian; conditions: Postemergence; for Ryegrass, Italian plant response rating: 500 g ai/ha, visual injury vs untreated controls after approx. 10 days
Outline: as §1

[11] = system: Foxtail, Giant (giant foxtail, Setaria faberi); assay: Test A postemergence, Foxtail, Giant; conditions: Postemergence; for Foxtail, Giant plant response rating: 500 g ai/ha, visual injury vs untreated controls after approx. 10 days
Outline: as §1

[12] = system: pigweed (Amaranthus retroflexus); assay: Test A postemergence, pigweed; conditions: Postemergence; for Pigweed plant response rating: 500 g ai/ha, visual injury vs untreated controls after approx. 10 days
Outline: as §1

[13] = system: wheat (Triticum aestivum); assay: Test A postemergence, wheat; conditions: Postemergence; for Wheat plant response rating: 500 g ai/ha, visual injury vs untreated controls after approx. 10 days
Outline: as §2

corn (Zea mays) = assay: Test A postemergence, corn; conditions: Postemergence; for Corn plant response rating: 500 g ai/ha, visual injury vs untreated controls after approx. 10 days
Outline: as §1

[14] = system: blackgrass (Alopecurus myosuroides); assay: Test A postemergence, blackgrass; conditions: Postemergence; for Blackgrass plant response rating: 500 g ai/ha, visual injury vs untreated controls after approx. 10 days
Outline: as §1

[15] = system: galium (catchweed bedstraw, Galium aparine); assay: Test A postemergence, galium; conditions: Postemergence; for Galium plant response rating: 500 g ai/ha, visual injury vs untreated controls after approx. 10 days
Outline: as §2

[16] = 31 g ai/ha, visual injury, approx. 10 days
[17] = 31 g ai/ha, visual injury on 0 to 100 scale (0 no effect, 100 complete control), approx. 10 days
[18] = 125 g ai/ha, 0 to 100 scale (0 no effect, 100 complete control)
[19] = 0 to 100 scale (0 no effect, 100 complete control)

SMILES | Barnyardgrass plant response rating [1] | Kochia plant response rating (kochia (Bassia scoparia) [2]) | Ragweed plant response rating [3] | Ryegrass, Italian plant response rating [4] | Foxtail, Giant plant response rating [5] | Pigweed plant response rating [6] | Plant response rating, Barnyardgrass [7, 18] | Plant response rating, Kochia (kochia (Bassia scoparia) [8]; [18]) | Plant response rating, Ragweed [9, 18] | Plant response rating, Ryegrass, Italian [10, 18] | Plant response rating, Foxtail, Giant [11, 18] | Plant response rating, Pigweed [12, 18] | Plant response rating, Wheat [13, 18] | Plant response rating, Corn (corn (Zea mays); [18]) | Plant response rating, Blackgrass [14, 18] | Plant response rating, Galium [15, 18] | Plant response rating, Barnyardgrass ([1]; 500 g ai/ha) | Plant response rating, Kochia (kochia (Bassia scoparia) [2]; 500 g ai/ha) | Plant response rating, Ragweed ([3]; 500 g ai/ha) | Plant response rating, Ryegrass, Italian ([4]; 500 g ai/ha) | further results
Cc1c(C(=O)N2CCOCC2)cc(N(S(=O)(=O)C(F)(F)F)S(=O)(=O)C(F)(F)F)c(C)c1F [Compound 174] | 80 | 80 | 90 | 60 | 90 | 100 | 60 | 30 | 90 | 0 | 0 | 90 | 0 | 20 | 0 | 80 | – | – | – | – | Plant response rating, Barnyardgrass [1, 16]: 10; Plant response rating, Kochia (kochia (Bassia scoparia) [2]; [16]): 40; Plant response rating, Ragweed [3, 16]: 30; Plant response rating, Ryegrass, Italian [4, 16]: 40; Plant response rating, Foxtail, Giant [5, 16]: 30; Plant response rating, Pigweed [6, 16]: 90; Plant response rating, Barnyardgrass [7, 17]: 0; Plant response rating, Kochia (kochia (Bassia scoparia) [8]; [17]): 10; Plant response rating, Ragweed [9, 17]: 70; Plant response rating, Ryegrass, Italian [10, 17]: 0; Plant response rating, Foxtail, Giant [11, 17]: 0; Plant response rating, Pigweed [12, 17]: 70; Plant response rating, Wheat [13, 17]: 0; Plant response rating, Corn (corn (Zea mays); [17]): 0; Plant response rating, Blackgrass [14, 17]: 0; Plant response rating, Galium [15, 17]: 50
COC1CCCN(C(=O)c2cc(NS(=O)(=O)C(F)(F)F)c(C)cc2C)C1 (stereo not drawn) [Compound 175] | 90 | 90 | 80 | 90 | 100 | 90 | 20 | 10 | 50 | 30 | 0 | 50 | 10 | 0 | 0 | 80 | 100 | 100 | 100 | 100 | Plant response rating, Foxtail, Giant ([5]; 500 g ai/ha): 100; Plant response rating, Pigweed ([6]; 500 g ai/ha): 100; Barnyardgrass plant response rating [7, 19]: 90; Kochia plant response rating (kochia (Bassia scoparia) [8]; [19]): 50; Ragweed plant response rating [9, 19]: 90; Ryegrass, Italian plant response rating [10, 19]: 80; Foxtail, Giant plant response rating [11, 19]: 30; Pigweed plant response rating [12, 19]: 90; Wheat plant response rating [13, 19]: 80; Corn plant response rating (corn (Zea mays); [19]): 10; Blackgrass plant response rating [14, 19]: 20; Galium plant response rating [15, 19]: 90
Cc1cc(C)c(C2=NOC3(CCOCC3)C2)cc1NS(=O)(=O)C(F)(F)F [Compound 177] | 80 | 100 | 70 | 100 | 70 | 80 | 70 | 20 | 90 | 40 | 10 | 60 | 20 | 0 | 0 | 90 | 100 | 100 | 90 | 100 | Plant response rating, Foxtail, Giant ([5]; 500 g ai/ha): 100; Plant response rating, Pigweed ([6]; 500 g ai/ha): 100; Barnyardgrass plant response rating [7, 19]: 90; Kochia plant response rating (kochia (Bassia scoparia) [8]; [19]): 70; Ragweed plant response rating [9, 19]: 90; Ryegrass, Italian plant response rating [10, 19]: 90; Foxtail, Giant plant response rating [11, 19]: 60; Pigweed plant response rating [12, 19]: 90; Wheat plant response rating [13, 19]: 80; Corn plant response rating (corn (Zea mays); [19]): 50; Blackgrass plant response rating [14, 19]: 30; Galium plant response rating [15, 19]: 90
